“And” between values parts separate entries of the source, which are not always exact repeats. Equal entries are not always repeated.
What was measured:
[1] = molecular target: protein synthesis in rabbit reticulocyte lysates; assay: Inhibition of protein synthesis in rabbit reticulocyte lysates (luciferase mRNA, luminescence); assay type: biochemical; conditions: for EC50: luciferase mRNA, 30 °C, 90 min, read-out: EC50 (50% inhibitory concentration); for impact on protein synthesis: concentration range extending to 50 μM; for inhibition of translation: at 100 μM
Procedure: The dose–response change in chemoluminescense monitored in the presence of various concentrations of investigational drugs following addition of luciferin allows comparison across compounds.
Assay conditions were employed as recommended by the manufacturer. In summary, reactions (20 μL) contained 80% TNT Quick master mix, 20 µM methionine, and 40 ng/µL luciferase RNA (Promega; L4561) at the indicated concentration of test chemicals. Samples were incubated at 30 °C for 90 min and diluted ten-fold with PBS. An aliquot (2 μL) was mixed with 20 μL of luciferase assay reagent (Promega; E1500) and luminescence was measured with a Turner Designs Model TD-20/20 Luminometer. Depending on the compound evaluated, experiments were repeated two-four times with good agreement between the runs. […] The results are reported as average values including the mean and standard deviation wherever applicable.

[2] = system: protein synthesis in Vero E6 cells; assay: Protein synthesis in cultured cells: puromycin pulse labeling and immunoblotting; assay type: cell-based, African green monkey
Procedure: Prior to the experiment, Vero E6 cells were seeded at 30,000 cells per cm^2 in 6-well plates in 5% FBS-EMEM. […] Control experiments were conducted in the absence and presence of cycloheximide (1–150 μM) or DMSO. Following incubation with puromycin for 10 min, the medium was quickly removed and cells washed with warm PBS and allowed to recover in drug-free 5% FBS-EMEM for 30 min. Cell pellets collected by trypsinization and centrifugation were stored at −80 °C while awaiting protein preparation and immunoblotting as described below.
Cell lysates were prepared in RIPA (radio-immunoprecipitation) buffer (Sigma; R0278) containing protease inhibitors (Sigma; P8340). Protein concentrations were determined via the Pierce^TM bicinconinic acid (BCA) assay (Thermo Fisher Scientific, Waltham, MA, USA) using bovine serum albumin as a standard. All procedures were performed in accordance with protocols recommended by the manufacturers. For immunoblotting, 8 μg of protein was combined with Laemmli buffer containing 10% β-mercaptoethanol, heated at 95 °C for 5 min and loaded on 8–16% Mini-PROTEAN® TGX™ precast protein gels. Samples were resolved via electrophoresis in Tris-Gly-SDS buffer and transferred to nitrocellulose membranes in Tris-Gly buffer containing 20% methanol at 4–6 V/cm^2 for one hour. Membranes were blocked in 10 mM sodium phosphate buffer containing 150 mM NaCl (pH 7.8), 5% milk and 0.1% TWEEN20 (PBST) at room temperature for at least one hour, then incubated overnight with primary anti-puromycin antibodies (TFS; MABE343 mouse monoclonal antibodies clone 12D10; 1:25,000) at 4 °C. […]
For β-actin staining, the same membranes used for puromycin immunostaining were washed four times for five min with 20 mM Tris-buffered saline containing 500 mM sodium chloride (pH 7.5) and 0.1% TWEEN20 (TBST) and stripped by two rounds of 20- and 10-min washes at 50 °C in glycine buffer (pH 2.2) containing 0.1% SDS (w/v) and 1% TWEEN20. […] The results were quantified with Image J 1.52a software using β-actin staining for each sample as an internal reference.

HIV-1 = conditions: among low molecular weight ATA components ref 39, 43; cited from earlier work
[3] = molecular target: SARS-CoV-2 RdRp (nsp12/7/8 complex) (Severe acute respiratory syndrome coronavirus 2, UniProt P0DTD1); assay: Inhibition of SARS-CoV-2 RdRp active complex (RNA extension assay); assay type: biochemical; conditions: RdRp-mediated RNA replication, 37 °C, 60 min, 1 μM RdRp complex
hCoV-OC43 = assay: Antiviral properties in hCoV-OC43 and VERO E6 cells (data not shown); assay type: cell-based; conditions: concentrations ≥200 μM
[4] = molecular target: T1, human serum albumin (HSA) (Homo sapiens, UniProt P02768); assay: HSA binding energetics via isothermal titration calorimetry (ITC); conditions: for TΔS / ΔG / ΔH: pH 7.4
T1 construct: purchased Millipore Sigma A1887
Procedure: The resultant heats are integrated to yield a binding profile (bottom panel) that is fit via nonlinear least squares analysis to a single site model (red line).
The protein was prepared as described in Section 5.1 and dialyzed exhaustively against a buffer comprised of 10 mM sodium phosphate adjusted to pH 7.4. […] Each ITC experiment consisted of thirty consecutive 10.0 µL injections during which the reaction heat is monitored and integrated over a 5.0 min period under continuous stirring. The experimental protocol has been designed to ensure that there is a tenfold excess of ligand in the titration syringe relative to standard protein concentration in the sample cell. The resultant binding isotherms are generated by recording the integrated reaction heats normalized for ligand concentration versus the HSA:ligand ratio. A nonlinear least squares fit of the resultant profile to a single site binding model yields thermodynamic parameters for the HSA–ligand complex including the affinity (Ka), Gibbs free energy (ΔG), enthalpy (ΔH), and entropy (ΔS).

yeast 80S ribosomes = assay: Ligand–ribosome binding via fluorescence anisotropy
[5] = ITC, 25.0 °C, listed as Dichlorohexamer

T1 sequence (P02768 25-609): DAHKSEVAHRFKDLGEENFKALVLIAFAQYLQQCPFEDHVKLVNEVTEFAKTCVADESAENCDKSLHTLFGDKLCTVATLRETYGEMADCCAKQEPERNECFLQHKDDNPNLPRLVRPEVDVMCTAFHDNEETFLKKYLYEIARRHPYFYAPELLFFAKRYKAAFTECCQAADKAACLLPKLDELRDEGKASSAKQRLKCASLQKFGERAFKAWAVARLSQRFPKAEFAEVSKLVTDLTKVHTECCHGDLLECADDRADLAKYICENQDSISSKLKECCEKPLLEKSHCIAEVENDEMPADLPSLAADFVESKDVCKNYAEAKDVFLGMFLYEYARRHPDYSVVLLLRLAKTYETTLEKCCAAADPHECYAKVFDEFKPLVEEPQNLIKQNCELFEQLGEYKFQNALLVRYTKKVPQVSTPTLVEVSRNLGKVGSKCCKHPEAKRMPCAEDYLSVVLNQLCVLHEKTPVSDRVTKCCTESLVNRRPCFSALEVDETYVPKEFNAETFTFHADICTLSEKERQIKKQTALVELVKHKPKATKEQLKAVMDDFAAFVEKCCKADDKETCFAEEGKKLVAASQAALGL

SMILES: C[C@@H]1C[C@@H]([C@H](O)CC2CC(=O)NC(=O)C2)C(=O)[C@@H](C)C1 [Cycloheximide]
- EC50 [1]: 0.106 µM
- activity at 150 µM ([2]; Chlorocebus sabaeus, Vero C1008, 150 uM, read-out: % activity (anti-puromycin/b-actin densitometry)): -3.99%
- activity at 300 µM ([2]; Chlorocebus sabaeus, Vero C1008, 300 uM, read-out: % activity (anti-puromycin/b-actin densitometry)): -3.95%
- concentration that inhibits protein synthesis ([2]; puromycin labeling): 1 µM

SMILES: O=C(O)c1cc(Cc2cc(C(c3ccc(O)c(C(=O)O)c3)c3ccc(O)c(C(=O)O)c3)cc(C(=O)O)c2O)ccc1O [compound 2]
- activity against HIV-1 (HIV-1): most active

SMILES: O=C(O)c1cc(Cc2cc(Cc3ccc(O)c(C(=O)O)c3)c(O)c(C(=O)O)c2)ccc1O [compound 3]
- activity against HIV-1 (HIV-1): most active

SMILES: O=C(O)c1cc(Cc2cc(Cc3cc(Cc4cc(Cl)c(O)c(C(=O)O)c4)c(O)c(C(=O)O)c3)cc(C(=O)O)c2O)cc(Cl)c1O [compound 8]
- impact on protein synthesis [1]: did not impact protein synthesis
- IC50 [3]: 163 µM and ~163 µM

SMILES: O=C(O)c1cc(Cc2cc(Cc3cc(Cc4ccc(O)c(C(=O)O)c4)c(O)c(C(=O)O)c3)cc(C(=O)O)c2O)ccc1O [compound 9]
- impact on protein synthesis [1]: did not impact protein synthesis
- IC50 [3]: 514 µM and ~514 µM

SMILES: O=C(O)c1cc(Cc2cc(Cc3cc(Cc4cc(Cc5cc(Cc6cc(Cl)c(O)c(C(=O)O)c6)c(O)c(C(=O)O)c5)c(O)c(C(=O)O)c4)cc(C(=O)O)c3O)cc(C(=O)O)c2O)cc(Cl)c1O [compound 11]
- antiviral properties (hCoV-OC43): modest activity
- inhibition of translation [1]: ~100%
- inhibition of translation ([1]; signal comparable to background): completely inhibited translation
- EC50 [1]: 28.1 µM
- Kd ([4]; ITC, 25.0 °C, 10 mM sodium phosphate pH 7.4): 1 ± 0.1 µM
- Ka × 10^5 ([4]; ITC, 25.0 °C, 10 mM sodium phosphate pH 7.4, single site model): 9.9 ± 0.5 10^5 M^−1
- TΔS ([4]; ITC, 25.0 °C): -7.1 kcal/mol
- ΔG ([4]; ITC, 25.0 °C): -8.0 kcal/mol
- ΔH ([4]; ITC, 25.0 °C): -15.1 kcal/mol
- TΔS [4, 5]: -7.1 ± 0.2 kcal/mol
- ΔG [4, 5]: -8.0 ± 0.2 kcal/mol
- ΔH [4, 5]: -15.1 ± 0.2 kcal/mol
- stoichiometry n ([4]; ITC, per monomeric unit of ATA (Mw 422.34) or per dichlorohexamer (Mw 956)): 1.0 ±0.0
- ΔΔG ([4]; chlorinated hexamer versus heterogeneous polymeric ATA, HSA binding): 0.4 kcal/mol
- Kd (yeast 80S ribosomes; 25 °C, fluorescence anisotropy): 0.21 ± 0.02 µM
- affinity (double reciprocal plot) (yeast 80S ribosomes; 25 °C, ligand 1 μM, excitation/emission 305/420 nm): 4.8 × 10 ^6 M^−1
- Kd (yeast 80S ribosomes; purified yeast ribosomes, discussion value): ~0.2 µM
- IC50 [3]: 0.108 µM
